The values that follow are results of earlier work, collected in US5852050A, “Preparation for treating wounds or hemorrhoids” (Kaken Pharmaceutical Co., Ltd., priority 1992, dated 1998).

For series [1] the following is noted: background statement; cited from earlier work.
The next series relates to platelet aggregation. Conditions: background statement; cited from earlier work.

In the case of `CCCCC[C@H](O)/C=C/[C@@H]1[C@H]2C/C(=C/CCCC(=O)O)O[C@H]2C[C@H]1O` [PGI2, Prostaglandin I2], in series [1], the chemical stability result was “chemically unstable”. In the series on platelet aggregation, the “inhibition activity of platelet aggregation” value was “high inhibition activity of platelet aggregation”. Take `CCCCC[C@H](O)/C=C/[C@H]1[C@H](O)CC(=O)[C@@H]1CCCCCCC(=O)O` [PGE1, prostaglandin E1]: the “inhibition activity of platelet aggregation” value in the series on platelet aggregation was “high inhibition activity of platelet aggregation”.
